Test results published in patent publication US8741951B2, “Non-steroidal compounds for androgen receptor modulation” (CNR—Consiglio Nazionale delle Ricerche, priority 2009, dated 2014).
Entries after “also recorded” stand apart in the source; their conditions may differ. Where two headings read alike, the source gives them in different places.

Assays:
[1] = biological target: T1, human androgen receptor (hAR) (Homo sapiens, UniProt P10275); assay: hAR transactivation assay (ARE-luc) in Cos-7 cells; type: cell-based; conditions: for inhibition of R1881-induced AR transcriptional activation (antagonistic activity), in words: compound 10 μM with 10 nM R1881; for agonistic activity on AR transcription, in words: compound alone, 10 nM to 1 μM or 10 μM
T1 construct: expressed in transfected cells; host or cells: Cos-7
T1 sequence (P10275 1-920): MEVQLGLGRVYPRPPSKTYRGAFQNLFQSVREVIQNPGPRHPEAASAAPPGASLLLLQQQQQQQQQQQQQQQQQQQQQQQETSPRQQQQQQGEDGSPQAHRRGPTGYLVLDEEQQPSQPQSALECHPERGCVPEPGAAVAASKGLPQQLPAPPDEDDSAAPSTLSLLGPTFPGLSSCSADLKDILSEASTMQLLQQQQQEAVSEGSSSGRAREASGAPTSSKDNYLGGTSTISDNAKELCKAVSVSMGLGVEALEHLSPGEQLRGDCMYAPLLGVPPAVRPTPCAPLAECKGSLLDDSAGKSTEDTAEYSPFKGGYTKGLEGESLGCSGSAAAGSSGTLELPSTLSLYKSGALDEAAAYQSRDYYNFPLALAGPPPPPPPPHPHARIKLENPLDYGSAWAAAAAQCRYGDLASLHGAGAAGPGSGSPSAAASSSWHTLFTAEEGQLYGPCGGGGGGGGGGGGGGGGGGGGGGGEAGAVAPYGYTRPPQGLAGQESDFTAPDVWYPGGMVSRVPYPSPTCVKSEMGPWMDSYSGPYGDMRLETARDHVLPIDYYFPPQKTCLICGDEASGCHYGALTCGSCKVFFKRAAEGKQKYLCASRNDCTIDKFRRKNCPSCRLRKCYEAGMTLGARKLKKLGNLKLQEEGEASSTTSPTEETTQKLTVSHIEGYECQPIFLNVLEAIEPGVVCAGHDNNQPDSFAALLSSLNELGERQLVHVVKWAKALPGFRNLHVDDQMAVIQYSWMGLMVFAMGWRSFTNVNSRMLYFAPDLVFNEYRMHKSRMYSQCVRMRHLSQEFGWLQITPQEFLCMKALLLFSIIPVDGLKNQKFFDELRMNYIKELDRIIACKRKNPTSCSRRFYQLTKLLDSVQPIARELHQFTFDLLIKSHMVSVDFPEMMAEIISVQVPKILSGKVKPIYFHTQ
Excerpt: The cDNA coding hAR was cloned into the pSG5 expression vector as reported previously [Chang, C. S., J. Kokontis, and S. T. Liao 1988 Molecular cloning of human and rat complementary DNA encoding androgen receptors Science 240:324-326].
The 3416 construct (ARE-Luc), containing four copies of the wild-type slp-HRE2 (5′-TGGTCAgccAGTTCT-3′) was cloned in the NheI site in pTK-TATA-Luc [Verrijdt, G., E. Schoenmakers, A. Haelens, B. Peeters, G. Verhoeven, W. Rombauts, and F. Claessens 2000 Change of specificity mutations in androgen selective enhancers J. Biol. Chem. 275:12298-12305].
For androgen-stimulated transcriptional analysis, 32×10^4 Cos-7 cells were plated in phenol red-free DMEM containing 5% charcoal-stripped serum. After 48 h, the cells were transfected by Superfect (Qiagen) with 0.3 μg of 3416-pTK-TATA-Luc construct, together with 1.5 μg of either pSG5-empty plasmid or pSG5-hAR expressing plasmid. […] When indicated, the synthetic compounds were added alone to the cell medium. […] It was dissolved in 0.001% (final concentration) ethanol. Control cells were treated with the vehicle alone. Lysates were prepared and the luciferase activity was measured using a luciferase assay system (Promega). The results were corrected using CH110-expressed beta-galactosidase activity (Amersham Biosciences) and luciferase activity was expressed as fold induction. Results were obtained from two or three different experiments, each performed in duplicate. Mean and SEM are shown.

LNCaP-AR cells = assay: SRB in vitro chemosensitivity assay, LNCaP-AR; type: cell-based; conditions: for GI50: Homo sapiens, LNCaP/AR; for GI50 / cytotoxic effect (cytostatic / cytocidal), in words: 144 h; for LC50: LNCaP-AR cells, 144 h exposure; for LC50 / cytotoxic effect (cytostatic / cytocidal), in words: up to 20 μM; for cytotoxic effect (cytostatic / cytocidal), in words: LNCaP-AR
Description: (§1) The cell lines were maintained as a monolayer at 37° C. and subcultured weekly. Culture medium was composed of RPMI 1640 supplemented with 10% fetal calf serum and 1% glutamine (Mascia Brunelli s.p.a., Milan, Italy). Cells were used in the exponential growth phase in all the experiments.
(§2) Compounds were dissolved in acetone or DMSO (AITES) ([…]) and stored at −20° C. The cell culture containing acetone at the highest concentration was used as the control.
(§3) Sulforhodamine B (SRB) assay was used according to the method by Skehan et al. (JNCI, 1990). Briefly, cells were collected by trypsinization, counted and plated at a density of 5,000 cells/well in 96-well flat-bottomed microtiter plates (100 μl of cell suspension/well). In the chemosensitivity assay, experiments were run in octuplicate, and each experiment was repeated three times. The optical density (OD) of cells was determined at a wavelength of 490 nm by a colorimetric plate reader.
(§4) If ODtreated is above ODzero, treatment has induced a cytostatic effect, whereas if ODtreated is below ODzero, cell killing has occurred. The ODzero depicts the cell number at the moment of drug addition, the ODcontrol reflects the cell number in untreated wells and the ODtreated reflects the cell number in treated wells on the day of the assay.
(§5) FIGS. 2-11 show the cytotoxic activity of the derivative compounds of the invention on the LNCaP and LNCaP-AR cell lines. The authors examined the antitumour activity of the compounds for which the synthesis is described above, in the hormone-sensitive prostate cancer cell line LNCaP and in its derivative cell line LNCaP-AR, expressing high level of AR and with hormone refractory prostate cancer (HRPC) features. The novel compounds were tested at the increasing concentrations of […], 0.2, 2.0, and 20.0 μM. The highest dose used was chosen on the basis of the clinically achievable peak plasma concentration reported in the literature for bicalutamide (Cockshott I D. Clin Pharmacokinet. 2004; 43(13): 855-78). After 144-hr exposure time the cytotoxic effect of the molecules was calculated according to the method of Monks et al. (Monks A, Scudiero D, Skehan P, et al. Feasibility of a high-flux anticancer drug screen using a diverse panel of cultured human tumor cell lines. J Natl Cancer Inst. 1991; 83: 757-66.)

PC-3 cell line = assay: SRB cytotoxicity, PC-3; type: cell-based, human; conditions: PC-3 (no AR), 144 h, up to 20 μM
Description: (§6) FIGS. 16-25: cytotoxic effect of compounds (R)-XXIII-2, (R)-XXIII-3, (R)-XXIII-4, (R)-XXIII-5, (R)-XXIII-6, (R)-XXIII-7, (R)-XXIII-8, (R)-XXIII-9, (R)-XXIII-10, (R)-XXIV-9 on PC-3 and DU-145 cell lines at different concentration (0.02, 0.2, 2, 20 μM) after 144 h exposure. On the x-axis is reported the concentration, while on the y-axis is reported the inhibition of the net growth (% net growth).
as §3, §4

[2] = test system: human hepatoblastoma cell line HepG2; assay: Cytotoxic activity on HepG2 (hepato-toxicity); type: cell-based; conditions: HepG2, up to highest concentration tested
Description: as §3, §4
FIG. 27-36 show the cytotoxic activity of the drugs on the human hepatoblastoma cell line HepG2. The authors evaluated in vitro the potential hepato-toxicity of some of the novel compounds on HepG2 cell line, a human hepatoblastoma cell line that retains the specialized function of normal hepatocytes [Knowles B B, Howe C C, Aden D P. Human hepatocellular carcinoma cell lines secretes the major plasma proteins and hepatitis B surface antigen. Science 1980, 209:497-499; Aden D P, Vogel A, Plortkin S, Damjanov I, Knowles B B. Controlled synthesis of HBS Ag in a differentiated human liver carcinoma-derived cell line. Nature, 1979, 282:615-616].

LNCaP cells = assay: SRB in vitro chemosensitivity assay, LNCaP; type: cell-based
Description: as §1, §2, §3, §4, §5

DU145 cell line = assay: SRB cytotoxicity, DU145; type: cell-based, human; conditions: DU145 (no AR), 144 h, up to 20 μM
Description: as §6, §3, §4

[3] = LNCaP cells, 144 h exposure, up to 20 μM

Structure (SMILES)	inhibition of R1881-induced AR transcriptional activation (antagonistic activity), in words [1]	GI50 (LNCaP-AR cells) [µM]	LC50 (LNCaP-AR cells)	cytotoxic effect (cytostatic / cytocidal), in words (LNCaP-AR cells)	cytotoxic activity, in words (PC-3 cell line)	hepato-toxicity, in words [2]	GI50 (LNCaP cells; Homo sapiens, LNCaP, 144 h) [µM]	LC50 (LNCaP cells; [3])	cytotoxic effect (cytostatic / cytocidal), in words (LNCaP cells; LNCaP, 144 h, up to 20 μM)	cytotoxic activity, in words (DU145 cell line)	agonistic activity on AR transcription, in words [1]	cytotoxic activity, in words (PC-3 cell line; listed as (R)-XIII-5)	LC50 (LNCaP cells; Homo sapiens, LNCaP, 144 h, read-out: LC50, LNCaP cells, 144 h exposure, up to 20 μM) [µM]	LC50 (LNCaP cells; read-out: LC50, LNCaP cells, 144 h exposure, up to 20 μM) [µM]	cytotoxic activity, in words (DU145 cell line; listed as (R)-XIII-5)
N#Cc1ccc(NC(=O)[C@](O)(Cc2ccc(F)cc2)CS(=O)(=O)c2ccc(F)cc2)cc1C(F)(F)F [(R)-XXIII-4]	A more pronounced inhibition	7.5	n.r.	suppress completely the cell growth	negligible cytotoxic activity	did not display toxicity	7	n.r.	suppress completely the cell growth	negligible cytotoxic activity					
N#Cc1ccc(NC(=O)[C@@](O)(CS(=O)(=O)c2ccc(F)cc2)c2ccccc2)cc1C(F)(F)F [(R)-XXIII-8]		11.6	n.r.	suppress completely the cell growth	negligible cytotoxic activity	did not display toxicity	11.8	n.r.	suppress completely the cell growth	negligible cytotoxic activity	does not increase the transcriptional activity of AR				
N#Cc1ccc(NC(=O)[C@](O)(Cc2ccccc2)CS(=O)(=O)c2ccc(F)cc2)cc1C(F)(F)F [(R)-XXIII-3]	A more robust inhibition	6.2	n.r.	suppress completely the cell growth	negligible cytotoxic activity	did not display toxicity	1.8	n.r.	suppress completely the cell growth	negligible cytotoxic activity	do not exhibit agonistic activity				
N#Cc1ccc(NC(=O)[C@](O)(Cc2ccc(C(F)(F)F)cc2)CS(=O)(=O)c2ccc(F)cc2)cc1C(F)(F)F [(R)-XXIII-5]	A more robust inhibition	1.9	n.r.	cell killing activity		did not display toxicity	2		cell killing activity		do not exhibit agonistic activity	negligible cytotoxic activity; also recorded: reduced cytotoxic propriety	16.2 to 20	16.2	negligible cytotoxic activity; also recorded: reduced cytotoxic propriety
